According to patent publication US20250302968A1, “RADIATION CLEAVED DRUG-CONJUGATE LINKERS ENABLE LOCAL PAYLOAD RELEASE SCLEROSIS” (The General Hospital Corporation, priority 2022, published 2025):
Like-named read-outs stand apart in the source and are kept apart here. Where a SMILES comes first, the peptide text is derived from it. [ ]: non-standard residue; d: D form. The star is where a group is joined. Dolaproine = CO[C@@H]([C@@H]1CCCN1)[C@@H](C)C(=O)O; Dil = CC[C@H](C)[C@H](NC)[C@@H](CC(=O)O)OC; X1 = C[C@@H](N*)[C@@H](O)c1ccccc1; NMeV = CN[C@H](C(=O)O)C(C)C

How the values were obtained:
[1] = Stability of prodrugs in PBS at 37° C., LC-MS; format: physicochemical; settings: buffer
Procedure: Prodrugs were prepared to concentrations of 10 μM in PBS (pH 7.4, <2% DMF) and incubated at 37° C. to determine the relative stability under physiological conditions (FIG. 14). Aliquots of these solutions were removed after varying time intervals and analyzed via LC-MS on a Waters 3100 Mass Detector with an Xterra MS C18 Column to measure the amount of each prodrug remaining in solution. All measurements were made in triplicate and analyzed in Graphpad Prism to determine the half-lives (991, 257, and 2252 hours were determined for compounds 8, 9, and 10 respectively).

[2] = test system: Bone marrow-derived macrophages (BMDM) from IL12-eYFP reporter mice; assay: Cellular immunostimulation of BMDM (p-NFkB and IL12-eYFP fluorescence); format: cell-based; settings: 100 nM, 48 hours
Procedure: Bone marrow-derived macrophages (BMDM) were generated from IL12-eYFP reporter mice by dissecting the femurs, flushing out the bone marrow, and culturing isolate with M-CSF supplemented growth media (Luthria G, et al. Nat Commun. 2020; 11:3521]. BMDM were plated in a 96 well plate at a concentration of 5,000 cells per well. These wells were then treated with either free gardiquimod, pATFB-SIL-Mal-Gard (13), or prodrug 13 that had been treated with 10 μM tris(2-carboxyethyl) phosphine) to chemically release the free gardiquimod (all drugs at a concentration of 100 nM). The cells were then incubated for 48 hours then fixed with 4% PFA and stained with Phospho-NF-κB p65 (Ser536) (93H1) Rabbit mAb and AF647 Goat anti-Rabbit IgG. Images were captured on a modified BX63 (Olympus) inverted microscopy system equipped with an environmental chamber and robotic stage, using excitation/emission wavelengths of 513/527 and 640/670 for eYFP and Cy5, respectively. The images were then quantified using ImageJ software (NIH, USA) to determine relative protein expression.

[3] = test system: 8505c (human anaplastic thyroid cancer); assay: Cytotoxicity assay, 72 hour incubation, PrestoBlue (resazurin-based); format: cell-based; settings: for IC50: Homo sapiens
Procedure: Experiments with cancer cells were performed to assess the degree to which the disclosed linker strategy shields biological activity of the drug payload under un-irradiated conditions, and restore drug activity once irradiated.
All cells were routinely evaluated for mycoplasma contamination and cultured following provider guidelines using 10% FBS (Bio-Techne Sales), 100 IU mL-1 penicillin, 100 μg mL-1 streptomycin (Invitrogen), with incubation at 37° C. and 5% CO2. Cytotoxicity experiments were performed by seeding 5,000 cells per well overnight in a 96-well plate (Corning) before the addition of each drug/conjugate. Empty wells with only media or vehicle-treated cells were used as controls. After addition of the corresponding drugs and a 72 hour incubation, the number of live cells was determined by PrestoBlue (ThermoFisher, USA) staining according to the provider's protocols.

[4] = Drug payload stability after X-ray irradiation, LC/MS chromatograph analysis; format: physicochemical; settings: 8 Gy X-ray irradiation, 100 uM in PBS, degassed
Procedure: FIG. 5. Illustrates drug payload stability after X-ray irradiation. […] Both drug solutions were prepared to a concentration of 100 uM in PBS and analyzed before and after irradiation. MMAE chromatographs were obtained via ELSD and DOX chromatographs were obtained via UV absorbance scan (200-800 nm).
No difference in cleavage efficiency was found between gamma irradiation from a sealed 137Cs source (primarily 662 keV photons at a dose rate of roughly 0.5 Gy/min), and X-ray irradiation (from a 4000 W tube generating 320 keV photons at 3 Gy/min), and little background release was observed under un-irradiated conditions (FIG. 4).

[5] = test system: 8505c cell line; assay: Subcellular localization of DOX by intrinsic fluorescence imaging; format: cell-based, human; settings: ATC cells (8505c)
Procedure: Subcellular localization of DOX in the 8505c cell line was measured using a modified BX63 (Olympus) inverted microscopy system equipped with an environmental chamber and robotic stage. DOX images were collected using a 40× air objective (PLAPO 40×/0.95 numerical aperture), with excitation and emission wavelengths of 489 nm and 508 nm, respectively. All images were processed using cellSens Dimension 3.1.1 (Olympus, USA) and ImageJ 1.53k (NIH, USA) software. Nuclear to cytoplasm fluorescence ratios were calculated and plotted using Excel (Microsoft) and Prism (GraphPad). 20 μM concentration of free (or released) DOX was used, and unirradiated prodrug used the same total (caged and uncaged) DOX concentration as used in the irradiated sample. Following treatment for 72 hours, live cells were immediately imaged by confocal microscopy.

[6] = 10 μM in PBS (pH 7.4, <2% DMF), 37° C., read-out: half-life (converted)

In the case of `CC[C@@H](C)[C@H]([C@H](CC(=O)N1CCC[C@@H]1[C@@H](OC)C(C)C(=O)N[C@@H](C)[C@H](O)c1ccccc1)OC)N(C)C(=O)[C@H](CC(=O)[C@H](C(C)C)N(C)C(=O)OC(C(=O)OC)c1ccc(NC(=O)OCc2c(F)c(F)c(N=[N+]=[N-])c(F)c2F)cc1)C(C)C` (some centres unmarked) [Compound 8], the half-life at 10 μM [1, 6] is reported as 41.3 days.

For `COC(=O)C(OC(=O)N[C@H]1C[C@H](O[C@H]2C[C@](O)(C(=O)CO)Cc3c(O)c4c(c(O)c32)C(=O)c2c(OC)cccc2C4=O)O[C@@H](C)[C@H]1O)c1ccc(NC(=O)OCc2c(F)c(F)c(N=[N+]=[N-])c(F)c2F)cc1` (some centres unmarked) [Compound 9], the half-life at 10 μM [1, 6] was 10.7 days.

With `CCN(Cc1nc2c(N)nc3ccccc3c2n1CC(C)(C)O)C(=O)OC(C(=O)OC)c1ccc(NC(=O)OCc2c(F)c(F)c(N=[N+]=[N-])c(F)c2F)cc1` (centres unmarked) [Compound 10] the “immunostimulatory behavior compared to free gardiquimod, caged” value [2] was “attenuated immunostimulatory behavior”, the “immunostimulatory activity after chemical uncaging” value ([2]; prodrug treated with 10 μM TCEP) was “restores the immunostimulatory activity” and the half-life at 10 μM ([1]; pH 7.4) was 93.8 days.

With `COC(=O)C(OC(=O)N[C@@H]1C[C@@H](O[C@H]2C[C@](O)(C(=O)CO)Cc3c(O)c4c(c(O)c32)C(=O)c2c(OC)cccc2C4=O)O[C@H](C)[C@H]1O)c1ccc(NC(=O)OCc2cc(OC)cc(OC)c2)cc1` (some centres unmarked) [DMBA-SIL-DOX] the IC50 ([3]; 8505C, light or radiation study, read-out: concentration at which drug inhibited 50% of ATC cell growth) was > 10000 nM and the “fold higher IC50 than that observed for the parent drug” value ([3]; un-irradiated, 8505c ATC cells) was “roughly 100 fold”.

For `CC[C@H](C)[C@@H]([C@@H](CC(=O)N1CCC[C@H]1[C@H](OC)[C@@H](C)C(=O)N[C@H](C)[C@@H](O)c1ccccc1)OC)N(C)C(=O)[C@@H](NC(=O)[C@@H](NC)C(C)C)C(C)C` [MMAE, monomethyl auristatin E] (H-[NMeV]V[Dil][Dolaproine]-X1), the “effect of irradiation on the drug payload itself” value [4] was “Neither MMAE nor doxorubicin themselves were substantially affected”.

In the case of `COc1cccc2c1C(=O)c1c(O)c3c(c(O)c1C2=O)C[C@@](O)(C(=O)CO)C[C@@H]3O[C@H]1C[C@H](N)[C@H](O)[C@H](C)O1` [doxorubicin], the “effect of irradiation on the drug payload itself” value [4] is reported as “Neither MMAE nor doxorubicin themselves were substantially affected”, the “subcellular distribution of DOX fluorescence, free drug” value [5] is reported as “nuclear accumulation” and the IC50 ([3]; 8505c ATC cells, read-out: IC50 of parent drug) is reported as 94 nM.
